± gives the standard deviation of the averaged measurements.
Legend:
U-2 OS [1] = test: cell painting activity score (Mahalanobis distance from DMSO wells); higher = stronger morphological phenotype; details: 24 h
Method in brief: (§1)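 U-2 OS cells were seeded at about 1,500 per well in 384-well plates and treated by pin tool for 24 h at 37 °C, usually at six 2-fold concentrations from 20 μM to 625 nM. After staining with MitoTracker, concanavalin A, phalloidin, wheat germ agglutinin, Hoechst and SYTO 14, plates were imaged on an Opera Phenix and features were extracted with CellProfiler and normalized to DMSO cells on the same plate. The activity score is the Mahalanobis distance from DMSO wells, and cell count is given relative to DMSO wells. Each value is the mean of four replicate plates.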

U-2 OS [2] = test: total intracellular glutathione (GSH + GSSG) relative to DMSO (% of control); higher = more glutathione; details: 24 h
Procedure: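 Total intracellular glutathione (GSH + GSSG) in U-2 OS cells by GSH/GSSG-Glo after 24 h compound treatment at 5, 10 and 20 uM (some at 40 and 80 uM), as percent of DMSO control. Five technical replicate plates, averaged.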

U-2 OS [3] = test: intracellular GSH:GSSG ratio (calculated); higher = more reduced glutathione pool; details: 24 h
Procedure: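 Intracellular glutathione in U-2 OS cells after 24 h compound treatment at 5, 10 and 20 uM (some at 40 and 80 uM). Total glutathione and GSSG were measured with the GSH/GSSG-Glo kit, and the GSH:GSSG ratio was calculated. Mean of five technical replicate plates.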

U-2 OS [4] = test: AUC of culture confluence over time (live-cell imaging) (AUC (confluence % x time)); higher = more confluent culture (less growth inhibition)
Method in brief: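 Reported values are areas under curves of confluence against time, recorded by live-cell imaging of U-2 OS cells. Cells in F-12K medium with 10% FBS, seeded at 750 per well in 384-well plates, were treated by pin tool 24 h later, most compounds at 20, 10 and 5 μM with 0.2% DMSO. Imaging at 37 °C took place every 4 h for up to 60 h.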

U-2 OS [5] = test: relative cell count vs DMSO (cell painting) (fraction of DMSO control); higher = more cells remaining (less cytotoxic); details: 24 h
Method in brief: as §1

U-2 OS [6] = test: cell viability (CellTiter-Glo) relative to DMSO (% of control); higher = more viable; details: 24 h
Procedure: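 Cell viability of U-2 OS cells by CellTiter-Glo after 24 h compound treatment at 5, 10 and 20 uM (some at 40 and 80 uM), measured in parallel with the glutathione assay, as percent of DMSO control. Five technical replicate plates, averaged.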

Compound	cell painting activity score (U-2 OS [1]; 0.625 µM)	cell painting activity score (U-2 OS [1]; 1.25 µM)	cell painting activity score (U-2 OS [1]; 2.5 µM)	cell painting activity score (U-2 OS [1]; 5 µM)	cell painting activity score (U-2 OS [1]; 10 µM)	cell painting activity score (U-2 OS [1]; 20 µM)	total intracellular glutathione (U-2 OS [2]; 5 µM)	total intracellular glutathione (U-2 OS [2]; 10 µM)	total intracellular glutathione (U-2 OS [2]; 20 µM)	intracellular GSH:GSSG ratio (U-2 OS [3]; 5 µM)	intracellular GSH:GSSG ratio (U-2 OS [3]; 10 µM)	intracellular GSH:GSSG ratio (U-2 OS [3]; 20 µM)	AUC of culture confluence over time (U-2 OS [4]; 5 µM)	AUC of culture confluence over time (U-2 OS [4]; 10 µM)	AUC of culture confluence over time (U-2 OS [4]; 20 µM)	relative cell count (U-2 OS [5]; 0.625 µM)	relative cell count (U-2 OS [5]; 1.25 µM)	relative cell count (U-2 OS [5]; 2.5 µM)	relative cell count (U-2 OS [5]; 5 µM)	relative cell count (U-2 OS [5]; 10 µM)	relative cell count (U-2 OS [5]; 20 µM)	cell viability (U-2 OS [6]; 5 µM)	cell viability (U-2 OS [6]; 10 µM)	cell viability (U-2 OS [6]; 20 µM)	cell painting activity score (U-2 OS [1]; 40 µM)	cell painting activity score (U-2 OS [1]; 80 µM)	total intracellular glutathione (U-2 OS [2]; 40 µM)	total intracellular glutathione (U-2 OS [2]; 80 µM)	intracellular GSH:GSSG ratio (U-2 OS [3]; 40 µM)	intracellular GSH:GSSG ratio (U-2 OS [3]; 80 µM)	AUC of culture confluence over time (U-2 OS [4]; 40 µM)	AUC of culture confluence over time (U-2 OS [4]; 80 µM)	relative cell count (U-2 OS [5]; 40 µM)	relative cell count (U-2 OS [5]; 80 µM)	cell viability (U-2 OS [6]; 40 µM)	cell viability (U-2 OS [6]; 80 µM)
Nc1nc(-c2ccccc2)[n+](-c2ccccc2)s1	7.03	3.42	2.65	3.42	3.28	9.72	113 ± 5.1	117 ± 8.2	26.8 ± 7.4	25.1	18.2	2.7	39.6	44.4	43.3	1.06	1.11	1.04	1.13	1.08	0.605	106 ± 3.7	105 ± 6.1	16 ± 10	–	–	–	–	–	–	–	–	–	–	–	–
CCCCCCCc1ccc(CCc2cccc(O)c2C(=O)O)cc1	4.31	3.72	4.79	5.56	4.29	6.6	93.7 ± 3.8	93.1 ± 7.4	83.9 ± 4	21.3	17.1	15.3	41.6	34.5	31.5	1.05	1.11	1.12	1.11	1.11	0.741	98.6 ± 2.9	98.6 ± 4.4	94.4 ± 4.6	19.1	23.3	62.5 ± 9.8	30.7 ± 11	15.7	11.3	24.6	17.9	0.307	0.365	66.6 ± 7.9	17.1 ± 8.5
CCCCCOc1ccc(/C=C\c2cccc(O)c2C(=O)O)cc1	5.46	4.75	3.23	3.6	4.31	4.17	75.1 ± 6.4	69.9 ± 7	81.1 ± 8.2	21.5	17.6	21.8	38.6	40.9	46.8	0.986	0.944	0.908	0.973	1.05	0.952	106 ± 3.3	97.9 ± 5.9	106 ± 6.7	6.92	17.3	78.4 ± 6.4	76.9 ± 9.8	14.2	35.3	34.2	44.5	0.501	0.24	104 ± 5.3	99 ± 5.7
C=CC(=O)Nc1ccc(CN2C(=O)N(c3cc(OC)cc(OC)c3)Cc3cnc(Nc4ccc(N5CCN(C)CC5)cc4)nc32)cc1	6.58	8.57	8.77	10.2	12.1	22.1	96.1 ± 3.3	93.1 ± 5	98.9 ± 4.6	13.6	16.7	12.9	44.2	37.3	27.8	0.983	0.946	0.955	0.951	0.83	0.673	91 ± 4.1	79.2 ± 3.3	69.2 ± 8.3	–	–	–	–	–	–	–	–	–	–	–	–
O=C(OCC)/C(C(OCC)=O)=C\CCCCCCCCCCCCCC	5.04	5.19	5.29	5.06	5.95	10.9	100 ± 4.9	95.7 ± 3.5	93.1 ± 2	18.9	17.6	21.8	53.1	50.2	48.9	0.991	0.978	0.959	1.02	0.99	0.967	94.3 ± 6.5	96.7 ± 6.4	100 ± 8	7.78	10.2	105 ± 4.8	98.9 ± 3	22	20.9	50.4	50.3	0.841	0.829	98 ± 6.9	99.2 ± 6.2
CCN1CCN(c2ccc3nsnc3c2[N+](=O)[O-])CC1	3.95	4.39	4.69	6.21	4.95	5.29	100 ± 6.2	98.1 ± 3.7	91.3 ± 3.3	16.2	18.8	13.3	45	46.2	42.9	0.938	0.946	0.945	0.908	0.929	0.955	105 ± 5.4	103 ± 4.1	106 ± 5.4	–	–	–	–	–	–	–	–	–	–	–	–
Nc1nc(-c2ccccc2)ns1	3.85	4.11	4.04	3.13	2.93	3.84	107 ± 7.8	89.3 ± 4	117 ± 7.1	29.7	23.5	27.1	44.7	46.7	45.6	1	0.944	0.943	0.973	1	1.01	104 ± 5.4	104 ± 3	101 ± 6.3	–	–	–	–	–	–	–	–	–	–	–	–
CCCCCCCCCCCCCCCc1cccc(O)c1C(=O)O	3.17	3.13	3.54	3.63	4.51	3.58	105 ± 3.3	94.7 ± 4.2	98.8 ± 4.7	19	18.3	24.7	42.7	53.4	52.9	1.09	1.09	1.13	1.05	1.01	1.05	102 ± 3	106 ± 5.8	100 ± 2.9	12.9	21	95.5 ± 3.8	96.7 ± 3.9	19.7	18.1	51.2	40.9	0.326	0.342	104 ± 4.9	101 ± 5.3
CC(=O)OC1C(c2ccc(=O)oc2)C2(C)CCC3C(CCC4CC(O)CCC43C)C23OC13 (configuration not stated)	17.1	16.2	18	19	18.5	18.8	13.9 ± 1.2	12.1 ± 1.1	11.5 ± 0.76	4.48	3.04	2.21	17.6	19.4	17.6	0.327	0.27	0.264	0.242	0.229	0.224	21.4 ± 1.7	21.5 ± 2.2	23.7 ± 3.1	–	–	–	–	–	–	–	–	–	–	–	–
Cc1cc(NC(=O)c2cccc(NC(=O)/C=C/CN(C)C)c2)ccc1Nc1nccc(-c2cccnc2)n1	10.3	11.4	11	10.8	11.1	13	93.9 ± 3.6	94.7 ± 6.5	72.6 ± 3.4	23.3	21	8.13	45.6	31.1	15.2	0.888	0.863	0.841	0.839	0.742	0.425	102 ± 7.2	98.9 ± 2.7	78.6 ± 5.4	–	–	–	–	–	–	–	–	–	–	–	–
O=C(NNS(=O)(=O)c1ccccc1)c1cc(-c2ccnnc2)ccc1F	4.47	4.16	3.77	3.67	4.24	4.38	98 ± 3.1	94.3 ± 3	94.6 ± 4.8	23.9	21.4	23.2	49.6	50	49.6	0.985	0.95	0.967	1.02	0.939	1.04	95.6 ± 5.4	87.5 ± 7.7	88.5 ± 3.6	–	–	–	–	–	–	–	–	–	–	–	–
O=[N+]([O-])c1cc(Br)c2nsnc2c1Sc1ncnc2nc[nH]c12	5.04	8.02	7.08	16.2	17.9	17.8	56.4 ± 8.3	34.6 ± 12	7.7 ± 3.1	9.74	2.76	4.35	12.5	14.1	18	0.89	0.788	0.814	0.205	0.0623	0.0543	29.6 ± 6.5	6.03 ± 3.7	0.936 ± 0.27	–	–	–	–	–	–	–	–	–	–	–	–
O=C1CC(Nc2ccccc2)C(=O)N1Cc1ccccc1 (configuration not stated)	3.91	3.72	3.99	4.03	4.46	3.59	92.2 ± 3.2	94.5 ± 4.7	102 ± 6.3	–	33.5	34.3	48	38.3	43.1	1.01	1.03	1.03	0.984	0.96	1.05	116 ± 4.3	106 ± 4.3	100 ± 4.4	–	–	–	–	–	–	–	–	–	–	–	–
O=C(CCCCCCC(=O)Nc1ccccc1)NO	9.26	11.1	12	12	17.1	14.8	60.5 ± 3.5	47.6 ± 4.1	39.5 ± 5.2	8.04	6.39	4.82	20.3	17.9	18.6	1.01	0.936	0.838	0.776	0.491	0.438	55.2 ± 5.3	49.6 ± 3	44 ± 2	–	–	–	–	–	–	–	–	–	–	–	–
CO[C@H]1C[C@@H]2CC[C@@H](C)[C@@](O)(O2)C(=O)C(=O)N2CCCC[C@H]2C(=O)O[C@H]([C@H](C)C[C@@H]2CC[C@@H](O)[C@H](OC)C2)CC(=O)[C@H](C)/C=C(\C)[C@@H](O)[C@@H](OC)C(=O)[C@H](C)C[C@H](C)/C=C/C=C/C=C/1C	11.4	12.3	12.1	10.8	12.1	11.9	90.5 ± 5.3	93.7 ± 5.7	102 ± 7	25.7	24.7	24.9	33.6	34.2	34.8	0.953	0.926	0.903	0.956	0.916	0.852	87.3 ± 5	90.6 ± 2.9	80 ± 6.5	–	–	–	–	–	–	–	–	–	–	–	–

Reference: the supplement of paper PMC10011410
